Holding throughout (experiment): NCI-60 cell line screen, 48 h
Assay [1] deals with A498 renal.
Assay [2] deals with ACHN renal.
Assay [3] concerns HCT-15 colon.
In assay [4] the test system is MDA-MB-435.
For assay [5], the system named is MOLT-4 leukemia.
For assay [6], the system named is NCI-H226 lung.
Assay [7] concerns NCI/ADR-RES ovarian.
The test system of assay [8] is RXF 393 renal.
The subject of assay [9] is SN12C renal.
In assay [10] the test system is SNB-19 CNS.

Values joined by “and” are separate entries in the source; they are usually repeats but may differ in a detail not shown here. Equal entries are not always repeated.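 The compound was tested at five concentrations on cells cultured in 96-well plates, with a 48-hour exposure period. At the GI50, growth is halved. TGI is the concentration that stops growth completely.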

Take `c1cncc(CNCc2cccnc2)c1`: the TGI in assay [1], in assay [2], in [3], in assay [4], in assay [5] and in assay [6] was more than 100 µM throughout. Also, the TGI in assay [7], in [8], in assay [9] and in assay [10] was more than 100 µM in each case.
In the case of `CC1=Cc2ccc(C)cc2C(=O)C1=O`, the TGI in assay [1] was 51.6 µM; in [2], 4.14 µM; in assay [3], 47.1 µM; in [4], 4.27 µM; in assay [5], 6.13 µM; in assay [6], more than 100 µM. Further, the TGI stood at 46.8 µM in [7], 3.27 µM in assay [8], 12.8 µM in assay [9] and 45.2 µM in assay [10].
For `CN(C)CCSS(=O)(=O)O`, the TGI in assay [1], in [2], in [3], in assay [4], in assay [5] and in assay [6] was more than 100 µM in each case. Moreover, the TGI in assay [7], in assay [8], in assay [9] and in assay [10] was more than 100 µM throughout.
As to `C=CC(=O)Nc1cc(N2CCN(CC)CC2)ccc1Nc1cc(N(C)C(=O)Nc2c(Cl)c(OC)cc(OC)c2Cl)ncn1`, the GI50 was 2.18 µM in assay [1]; 11.5 µM in assay [2]; 6.25 µM in assay [3]; 3.47 µM in [4]; 3.01 µM in [5]; 14.2 µM in assay [6]. The GI50 in [7] is 20.5 µM; in assay [8], 2.98 µM; in [9] it was 2.84 µM; in assay [10] it was 5.05 µM. The TGI turned out to be 8.53 µM in assay [1]; 23.8 µM in assay [2]; 21.3 µM in assay [3]; 14.4 µM in assay [4]; 13.4 µM in assay [5]; 35.8 µM in [6]. Further, the TGI in assay [7] was 70.5 µM; in assay [8], 9.76 µM; in [9], 9.72 µM; in [10], 17.5 µM.
`CC(C)=CCC(OC(=O)C=C(C)C)C1=CC(=O)c2c(O)ccc(O)c2C1=O` (configuration not stated): the GI50 in [1] was 20 µM; in [2], 0.605 µM; in [3], 1.07 µM; in [4] it was 2.09 µM; in assay [5], 0.182 µM and 0.0424 µM; in [6], 1.99 µM. For the same compound, the GI50 in [7] was 3.68 µM; in assay [9] it was 1.9 µM; in assay [10], 21.9 µM. Moreover, the TGI in assay [1] was 39 µM and 5.39 µM; in assay [2] it was 2.53 µM; in assay [3], 3.22 µM and 1.13 µM; in assay [4] it was 4.77 µM; in [5], 1.29 µM and 1.42 µM; in assay [6], 4.02 µM and 6.72 µM. Besides, the TGI in assay [7] is 29.5 µM and 3.16 µM; in [8] it was 0.533 µM and 0.467 µM; in assay [9], 3.94 µM and 2.92 µM; in assay [10] it was 40.2 µM and 15.3 µM.
As for `O=C(NCCc1ccccn1)OCc1nc2nc(Cl)nc(N3CCOCC3)c2[nH]1`, the GI50 in assay [1] is 2.64 µM; in [2] it was 1.29 µM; in assay [3] it was 1.74 µM; in [4], 1.33 µM; in assay [5] it was 3 µM; in assay [6] it was 1.61 µM. The GI50 in assay [7] was 1.44 µM; in assay [8] it was 1.12 µM; in assay [9] it was 1.5 µM; in [10], 4.58 µM. Besides, the TGI in assay [1] was 10.4 µM; in assay [2] it was 2.55 µM; in assay [3] it was 5.17 µM; in assay [4] it was 2.78 µM; in assay [5], 9.5 µM; in [6] it was 3.29 µM. For the same compound, the TGI stood at 6.22 µM in assay [7], 2.4 µM in assay [8], 3.19 µM in assay [9] and 16.5 µM in [10].
With `CC1=Nc2ccccc2/C1=C\c1c(C)[nH]c2ccccc12`, the TGI in assay [1] worked out at 38 µM; in [2], 29.5 µM; in [3], 31.5 µM; in [4], 26.7 µM; in assay [5] it was 40.2 µM; in assay [6], 33.2 µM. Moreover, the TGI in assay [7] amounted to 38.3 µM; in assay [8] it was 33.2 µM; in [9] it was 72.5 µM; in [10], 35.5 µM.
On to `O=C1CC(c2[nH]nc3ccccc23)C(=O)N1c1ccccc1` (configuration not stated), for which the TGI in assay [1], in [2], in assay [3], in [4], in assay [5] and in assay [6] was more than 100 µM throughout. For the same compound, the TGI in [7], in [8], in [9] and in assay [10] was more than 100 µM each time.
Turning to `C=C1CCC2(C#N)[C@H]3[C@H](CC[C@@H]2C)[C@@H](C)C[C@@H](CC(C)(C)NC(=O)CN2CCC2=O)[C@H]13` (some centres not stated), the GI50 in assay [1] was 9.03 µM; in assay [2], 11.3 µM; in assay [3] it was 3.68 µM; in assay [4] it was 6.19 µM; in [5], 13.8 µM; in assay [6], 11.2 µM. Also, the GI50 in assay [7] is 11.3 µM; in assay [8] it was 11.5 µM; in assay [9], 11.9 µM; in [10], 9.58 µM. The TGI in assay [1] amounted to 53.1 µM; in assay [2], 51.4 µM; in [3], 26.8 µM; in assay [4] it was 23.8 µM; in assay [5], 70.3 µM; in [6], 33.7 µM. The TGI in assay [7] worked out at 38.4 µM; in assay [8] it was 28 µM; in assay [9] it was 49.5 µM; in assay [10], 48.4 µM.
On to `CCN(c1cc(-c2ccc(CN3CCOCC3)cc2)cc(C(=O)NCc2c(C)cc(C)[nH]c2=O)c1C)C1CCOCC1`, for which the GI50 is 9.79 µM in assay [1]; 26 µM in assay [2]; 19.2 µM in [3]; 17.4 µM in assay [4]; 21.6 µM in assay [5]; 16.5 µM in assay [6]. Moreover, the GI50 is 36.2 µM in assay [7], 16.5 µM in assay [8], 26.9 µM in assay [9] and 37.4 µM in assay [10]. For the same compound, the TGI was found to be 37.2 µM in [1]; 74.9 µM in assay [2]; 48.4 µM in assay [3]; 34.6 µM in assay [4]; 93.8 µM in [5]; 40.8 µM in assay [6]. Besides, the TGI in assay [7] is more than 100 µM; in assay [8], 44.7 µM; in assay [9] it was more than 64.5 µM; in assay [10], more than 84.5 µM.
For the compound `COc1cc2c(cc1O)CC1c3c(cc(O)c(OC)c3-2)CCN1C` (configuration not stated), the TGI in [1], in [2], in assay [3], in [4], in assay [5] and in [6] was more than 100 µM in each case. Further, the TGI in assay [7], in assay [8], in assay [9] and in [10] was more than 100 µM throughout.
In the case of `O=c1cc(N/N=C/c2ccc(F)cc2)c2cc(Cl)ccc2[nH]1`, the GI50 in assay [1] is 14.8 µM; in [2], 17.2 µM; in assay [3] it was 19.9 µM; in assay [4], 13.4 µM; in assay [5], 4.07 µM; in assay [6], 14.6 µM. Moreover, the GI50 was 23.5 µM in assay [7], 23.7 µM in assay [8], 23.8 µM in [9] and 23.5 µM in assay [10]. For the same compound, the TGI is 92.7 µM in assay [1]; 72.1 µM in assay [2]; more than 100 µM in [3]; more than 100 µM in assay [4]; more than 100 µM in [5]; more than 100 µM in assay [6]. Besides, the TGI in assay [7], in [8], in assay [9] and in [10] was more than 100 µM throughout.
Turning to `Cc1nc(Nc2cccnc2)sc1C(=O)/C=C/c1ccc(Cl)cc1`, the GI50 in [1] is 49.5 µM; in assay [3], 1.59 µM; in assay [4], 2.26 µM; in assay [5], 3.49 µM; in [6], 2.75 µM; in assay [7] it was 3.03 µM. In addition, the figures for the GI50 in [8], in assay [9] and in [10] were 2.43 µM, 2.91 µM and 2.31 µM, respectively. Besides, the TGI in [1] is more than 100 µM; in assay [3], 4.03 µM; in assay [4], 6.46 µM; in assay [5] it was more than 100 µM; in assay [6], 8.12 µM; in [7], 11.1 µM. The TGI in [8] came out at 5.46 µM; in assay [9], 9.13 µM; in assay [10] it was 5.99 µM.
For `C#Cc1nc2ccccc2c(=O)[nH]1`, the GI50 in [1] is 1.58 µM; in assay [2], 0.336 µM; in assay [3], 0.224 µM; in assay [4] it was 0.51 µM; in assay [5], 0.316 µM; in assay [6] it was 0.513 µM. Moreover, the GI50 in assay [7] is 0.927 µM; in assay [8], 0.249 µM; in [9], 0.331 µM; in assay [10] it was 4.19 µM. Besides, the TGI in [1] is 3.26 µM; in assay [2] it was 1.32 µM; in assay [3] it was 0.644 µM; in assay [4], 2.13 µM; in assay [5], 0.994 µM; in [6], 11.7 µM. The TGI was 8.19 µM in assay [7], 0.871 µM in [8], 1.26 µM in assay [9] and 18 µM in assay [10].
Consider `Cc1cc(N=C2C=C(Br)C(=O)C(Br)=C2)cc(CN(CC(=O)O)CC(=O)O)c1O`, for which the TGI in [1], in assay [2], in assay [3], in [4], in [5] and in [6] was more than 100 µM each time. Moreover, the TGI in [7], in assay [8], in assay [9] and in assay [10] was more than 100 µM throughout.
For the compound `COC(=O)C1C(O)C(C)C(O)C(C)C=C(C)C2=C3C(=C(C)C(=O)c4c(O)c(c(C)c(OC(C)=O)c43)NC(=O)C(C)=C/C=C\C(C)C(O)C(C)C1O)OCO2` (configuration not stated), the TGI in [1] is 99.4 µM; in [2] it was more than 100 µM; in [3], 65.9 µM; in assay [4], 30.4 µM; in assay [5], 51.4 µM; in [6], more than 100 µM. Also, the TGI in [7] is more than 100 µM; in assay [8], 89.8 µM; in assay [9], more than 100 µM; in assay [10], more than 100 µM.
Turning to `O=C1CCC(N2C(=O)c3ccccc3C2=O)C(=O)N1` (configuration not stated), the GI50 in [1] and in [6] was more than 100 µM throughout. For the same compound, the TGI in assay [1], in assay [2], in assay [3], in assay [4], in [5] and in assay [6] was more than 100 µM in each case. Further, the TGI in assay [7], in [8], in [9] and in [10] was more than 100 µM throughout.
As for `O=c1[nH]c2nc(NC3CCOCC3)ncc2cc1Oc1ccc(F)cc1F`, the GI50 in assay [1], in assay [2], in [3], in [4], in [5] and in assay [6] was more than 25 µM throughout. The GI50 in assay [7], in assay [8], in assay [9] and in assay [10] was more than 25 µM each time. For the same compound, the TGI in assay [1], in assay [2], in assay [3], in assay [4], in assay [5] and in assay [6] was more than 25 µM each time. Also, the TGI in assay [7], in assay [8], in [9] and in assay [10] was more than 25 µM each time.
Consider `Cc1ccc(S(=O)(=O)c2nc(-c3ccccc3)oc2S(C)=O)cc1` (configuration not stated), for which the GI50 in assay [1] was 4.23 µM; in [2] it was 1.52 µM; in [4], 1.53 µM; in [5] it was 2.12 µM; in assay [6], 1.96 µM; in [7] it was 2.14 µM. The GI50 in [8] was 1.46 µM; in assay [9] it was 1.68 µM; in assay [10], 3.35 µM. Further, the TGI in assay [1] was found to be 13.6 µM; in assay [2], 2.88 µM; in assay [4], 3.04 µM; in [5], 5.5 µM; in [6] it was 4.73 µM; in assay [7], 4.89 µM. The TGI turned out to be 2.87 µM in assay [8], 3.43 µM in [9] and 11.2 µM in assay [10].
